# In patent US9402847B2, “Combinations comprising (S)-4-amino-N-(1-(4-chlorophenyl)-3-hydroxypropyl)-1-(7H-pyrrolo[2,3-d]pyrimidin-4-yl)piperidine-4-carboxamide” (AstraZeneca AB, priority 2011, dated 2016):
# How the values were obtained:
# BT474c model = experiment: BT474c tumour xenograft in nude mice, tumour volume by calipers; assay type: in vivo
# Protocol: (§1) Tumour cells were implanted subcutaneously into the flank of nude mice, then a tumour was allowed to grow in each mouse until it reached the desired starting volume for the particular experiment (approximately 0.6 cm^3 for the BT474c experiment, and approximately 0.15 cm^3 for the HCC-1187 experiment). The mice were then randomised into groups—each group destined to receive one of the four treatment regimes described in each of FIGS. 1 and 2. The mice were then dosed as described in FIGS. 1 and 2, where docetaxel was administered intravenously, and Compound (I) (as the free base) was administered orally. Calipers were used to monitor tumour sizes during these experiments, and the results are plotted on the graphs of FIGS. 1 and 2.
# (§2) The BT-474 tumour cell line (human mammary carcinoma) was obtained from Dr Jose Baselga (at Laboratorio Recerca Oncologica, Paseo Vall D'Hebron 119-129, Barcelona 08035, Spain). This cell line was subcloned and a certain population referred herein to as BT474c was obtained. The HCC-1187 cell line is available from ATCC (www.atcc.org).
# [1] = test system: HCC-1187 breast cancer xenografts; experiment: HCC-1187 breast cancer xenografts in nude mice, tumour volume by calipers; assay type: in vivo; details: for efficacy of combination versus docetaxel monotherapy: AZD5363 300 mg/kg once daily, 4 days on, 3 days off, 3 weekly cycles
# Protocol: In these experiments the indicated agent(s) where being administered in 2 weekly dosage cycles, then there was no dosing in the 3rd week (days 15-21 inclusive). The indicated agent(s) were again administered in further weekly dosage cycles from week 4 onwards.
# Animals were dosed with compounds over a 3 week period (3 weekly cycles of docetaxel and 3 weekly cycles of AZD5363 300 mg/kg once daily, 4 days on, 3 days off). […] Following the 3 weekly cycles of treatment, animals were not treated with compound, and recovery of tumour growth was monitored.
# as §1, §2
compound,measurement,setting,value
"NC1(C(=O)N[C@@H](CCO)c2ccc(Cl)cc2)CCN(c2ncnc3[nH]ccc23)CC1 [Compound (I), (S)-4-amino-N-(1-(4-chlorophenyl)-3-hydroxypropyl)-1-(7H-pyrrolo[2,3-d]pyrimidin-4-yl)piperidine-4-carboxamide]",sensitisation to docetaxel,"BT474c model; BT474c model, single dose of docetaxel",greatly sensitise
same,"effect at regulating tumour volume, combination compared with either component alone",BT474c model; Compound (I) in combination with docetaxel,more than an additive effect
same,change in tumour volume,"BT474c model; FIG. 1, BT474c model, 16-day period, Compound (I) free base orally in combination with docetaxel intravenously",significant tumour shrinkage
same,"antitumour activity, intermittent versus continuous schedule of Compound (I)","[1]; FIG. 2, HCC-1187 model, 55-day period, in combination with weekly cycles of docetaxel",similarly sustained antitumour activity
same,efficacy of combination versus docetaxel monotherapy,"[1]; FIG. 3, docetaxel administered 24 hours after the final dose of AZD5363",antagonistic
same,efficacy of combination versus docetaxel monotherapy,"[1]; FIG. 3, docetaxel dosed 1 hour (same day) before first administration of AZD5363",greater efficacy than docetaxel monotherapy
same,efficacy of combination versus docetaxel monotherapy,"[1]; FIG. 3, docetaxel dosed 24 hours (day before) before first administration of AZD5363",greater efficacy than docetaxel monotherapy
same,tumour growth delay after the 3 weekly cycles of treatment,"[1]; FIG. 3, docetaxel administered 1 hour before AZD5363, compared with the other schedules investigated",longest tumour growth delay
